Results from ChEMBL document CHEMBL2203223, “Identification of novel mPGES-1 inhibitors through screening of a chemical library” (Bioorg Med Chem Lett, 2012).

molecular target: T1, Prostaglandin E synthase (Mus musculus) (UniProt Q9JM51); experiment: Inhibition of microsomal PGES1 in mouse RAW264.7 cells assessed as inhibition of LPS-induced PGE2 production at 1 uM incubated for 1 hr prior to LPS challenge measured after 24 hrs by enzyme immunoassay; type: cell-based
T1 sequence (whole entry): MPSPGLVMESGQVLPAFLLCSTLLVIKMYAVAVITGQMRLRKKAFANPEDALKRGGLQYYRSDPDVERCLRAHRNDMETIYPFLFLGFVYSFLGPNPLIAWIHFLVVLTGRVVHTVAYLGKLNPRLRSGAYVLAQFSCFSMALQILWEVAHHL

| inhibition | SMILES |
| --- | --- |
| 59.9% | O=C(Oc1ccccc1)N(NS(=O)(=O)c1ccccc1)c1ccccc1 |

molecular target: T2, Prostaglandin E synthase (Homo sapiens) (UniProt O14684); experiment: Inhibition of microsomal PGES1 at 10 uM
T2 sequence (whole entry): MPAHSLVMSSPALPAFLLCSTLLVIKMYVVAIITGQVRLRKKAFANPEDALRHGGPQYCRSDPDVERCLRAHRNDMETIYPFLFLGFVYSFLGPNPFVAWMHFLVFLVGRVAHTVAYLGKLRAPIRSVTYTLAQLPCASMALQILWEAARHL

| SMILES | inhibition |
| --- | --- |
| O=C(C=C1c2ccccc2-c2ccccc21)NNC(=O)N(c1ccccc1)c1ccccc1 | 90% |
| Cc1cccc(NC(=S)N/N=C/c2cccc([N+](=O)[O-])c2)c1 | 90% |
| Cc1n[nH]c(=S)n(/N=C/c2cccc([N+](=O)[O-])c2)c1=O | 90% |

Continued, values first:

| inhibition | SMILES |
| --- | --- |
| 90% | CNC(=O)/C(=N/OC)c1ccccc1CO/N=C(/C)c1cccc(O/C(F)=C(\c2ccc(OC)cc2)C(F)(F)F)c1 |
| 90% | CN1C(=O)C(NC(=O)Nc2ccccc2Cl)N(C)C(=O)c2ccccc21 (racemic) |
| 90% | O=C1C(=O)N(c2ccccc2)c2ccccc21 |

molecular target: T2, Prostaglandin E synthase (Homo sapiens); experiment: Inhibition of microsomal PGES1 at 25 uM

| inhibition | SMILES |
| --- | --- |
| > 80% | CNC(=O)/C(=N\OC)c1ccccc1O |
| > 80% | O=C1Sc2ccccc2C1=O |
| > 80% | CN1C(=O)C(N)NC(=O)c2ccccc21 (racemic) |

| SMILES | inhibition |
| --- | --- |
| COc1ccc(OC(=O)Nc2ccccc2)cc1 | > 80% |

molecular target: T1, Prostaglandin E synthase (Mus musculus); experiment: Inhibition of microsomal PGES1 in mouse RAW264.7 cells assessed as inhibition of LPS-induced PGE2 production at 10 uM incubated for 1 hr prior to LPS challenge measured after 24 hrs by enzyme immunoassay; type: cell-based

| inhibition | SMILES |
| --- | --- |
| 93.3% | O=C(Oc1ccccc1)N(NS(=O)(=O)c1ccccc1)c1ccccc1 |
